Usually melting point stands for the temperature of the solid-liquid transition. Take `Cn1ncnc1COc1nn2c(-c3ccccc3F)nnc2cc1-c1cccs1` (hydrate or solvate) [Example 18, 3-(2-Fluorophenyl)-6-(2-methyl-2H-1,2,4-triazol-3-ylmethoxy)-7-(thien-2-yl)-1,2,4-triazolo[4,3-b]pyridazine]: the melting point was 189 to 190 °C.

For `Cn1cnc(COc2nn3c(-c4ccccc4F)nnc3cc2C2(C)CCOCC2)n1` [Example 37, 3-(2-Fluorophenyl)-7-(4-methyltetrahydropyran-4-yl)-6-(1-methyl-1H-1,2,4-triazol-3-ylmethoxy)-1,2,4-triazolo [4,3-b]pyridazine], the melting point came to 154 °C.

For the compound `CC(C)Cc1cc2nnc(-c3ccccc3F)n2nc1OCc1ncnn1C` [Example 28, 3-(2-Fluorophenyl)-7-(2-methylpropyl)-6-(2-methyl-2H-1,2,4-triazol-3-ylmethoxy)-1,2,4-triazolo[4,3-b]pyridazine], the melting point was 134 to 136 °C.

The compound `Cn1ncnc1COc1nn2c(-c3ccccc3F)nnc2cc1C(F)(F)F` [Example 35, 3-(2-Fluorophenyl)-6-(2-methyl-2H-1,2,4-triazol-3-ylmethoxy)-7-trifluoromethyl-1,2,4-triazolo[4,3-b]pyridazine] displayed a melting point of 123 to 126 °C.

In turn, `Cn1ncnc1COc1nn2c(-c3ccccc3F)nnc2cc1C1CC(F)(F)C1` [Example 42, 7-(3,3-Difluorocyclobutyl)-3-(2-fluorophenyl)-6-(2-methyl-2H-1,2,4-triazol-3-ylmethoxy)-1,2,4-triazolo[4,3-b]pyridazine] gave a melting point of 178 °C.

Take `Cc1cc(COc2nn3c(-c4ccccc4F)nnc3cc2C2CCC2)no1` [Example 15, 7-Cyclobutyl-3-(2-fluorophenyl)-6-(5-methylisoxazol-3-ylmethoxy)-1,2,4-triazolo[4,3-b]pyridazine]: the melting point was determined as 150 °C.

`Cn1ncnc1COc1nn2c(-c3ccccc3F)nnc2cc1C1CCCO1` (stereo not drawn) [Example 43, 3-(2-Fluorophenyl)-6-(2-methyl-2H-1,2,4-triazol-3-ylmethoxy)-7-(tetrahydrofur-2-yl)-1,2,4-triazolo[4,3-b]pyridazine] came in with a melting point of 136 to 139 °C.

The compound `Cn1ccnc1COc1nn2c(-c3ccccc3F)nnc2cc1C1CCC1` [Example 16, 7-Cyclobutyl-3-(2-fluorophenyl)-6-(1-methyl-1H-Imidazol-2-ylmethoxy)-1,2,4-triazolo[4,3-b]pyridazine] gave a melting point of 173 °C.

`Cn1cnc(COc2nn3c(-c4ccc(F)cc4F)nnc3cc2C2(C)CCCCC2)n1` [Example 13, 3-(2,4-Difluorophenyl)-7-(1-methylcyclohexyl)-6-(1-methyl-1H-1,2,4-triazol-3-ylmethoxy)-1,2,4-triazolo[4,3-b]pyridazine] displayed a melting point of 156 °C.

`Cn1nccc1COc1nn2c(-c3ccccc3F)nnc2cc1C1CCC1` [Example 26, 7-Cyclobutyl-3-(2-fluorophenyl)-6-(2-methyl-2H-pyrazol-3-ylmethoxy)-1,2,4-triazolo[4,3-b]pyridazine]: the melting point was 184 to 186 °C.

As for `Cn1ncnc1COc1nn2c(-c3ccccc3F)nnc2cc1-c1cccc(F)c1` [Example 44, 7-(3-Fluorophenyl)-3-(2-fluorophenyl)-6-(2-methyl-2H-1,2,4-triazol-3-ylmethoxy)-1,2,4-triazolo[4,3-b]pyridazine], the melting point fell in the range of 204 to 206 °C.

As for `Cn1cnc(COc2nn3c(-c4ccccc4F)nnc3cc2C2(C)CCC(F)(F)CC2)n1` [Example 40, 7-(4,4-Difluoro-1-methylcyclohexyl)-3-(2-fluorophenyl)-6-(1-methyl-1H-1,2,4-triazol-3-ylmethoxy)-1,2,4-triazolo [4,3-b]pyridazine], the melting point is 193 °C.

For `CC(C)CCc1cc2nnc(-c3ccccc3F)n2nc1OCc1ncnn1C` [Example 29, 3-(2-Fluorophenyl)-7-(3-methylbutyl)-6-(2-methyl-2H-1,2,4-triazol-3-ylmethoxy)-1,2,4-triazolo[4,3-b]pyridazine], the melting point fell in the range of 103 to 105 °C.

Compound `Cn1ncnc1COc1nn2c(-c3ccc(F)cc3F)nnc2cc1-c1cccs1` [Example 19, 3-(2,4-Difluorophenyl)-6-(2-methyl-2H-1,2,4-triazol-3-ylmethoxy)-7-(thien-2-yl)-1,2,4-triazolo[4,3-b]pyridazine] came in with a melting point of 209 to 212 °C.

Consider `Cn1ncnc1COc1nn2c(-c3ccccc3F)nnc2cc1C1(F)CCC1` [Example 25, 7-(1-Fluorocyclobutyl)-3-(2-fluorophenyl)-6-(2-methyl-2H-1,2,4-triazol-3-ylmethoxy)-1,2,4-triazolo[4,3-b]pyridazine], for which the melting point lay within 154 to 162 °C.

Compound `Cn1ncnc1COc1nn2c(-c3ccc(F)cc3F)nnc2cc1C1(C)CCCCC1` [Example 12, 3-(2,4-Difluorophenyl)-7-(1-methylcyclohexyl)-6-(2-methyl-2H-1,2,4-triazol-3-ylmethoxy)-1,2,4-triazolo[4,3-b]pyridazine] returned a melting point of 196 °C.

Turning to `Cn1ncnc1COc1nn2c(-c3ccccc3F)nnc2cc1CC1CCCC1` [Example 30, 7-Cyclopentylmethyl-3-(2-fluorophenyl)-6-(2-methyl-2H-1,2,4-triazol-3-ylmethoxy)-1,2,4-triazolo[4,3-b]pyridazine], the melting point fell in the range of 135 to 137 °C.

On to `Cn1cnc(COc2nn3c(-c4ccccc4F)nnc3cc2C2CCC2)c1` [Example 24, 7-Cyclobutyl-3-(2-fluorophenyl)-6-(1-methyl-1H-imidazol-4-ylmethoxy)-1,2,4triazolo[4,3-b]pyridazine], for which the melting point was 176 °C.

As to `Cn1ncnc1COc1nn2c(-c3ccccc3F)nnc2cc1C1(C)CCOCC1` [Example 36, 3-(2-Fluorophenyl)-7-(4-methyltetrahydropyran-4-yl)-6-(2-methyl-2H-1,2,4-triazol-3-ylmethoxy)-1,2,4-triazolo [4,3-b]pyridazine], the melting point worked out at 191 °C.

Compound `Cn1cnnc1COc1nn2c(-c3ccccc3F)nnc2cc1C1CCC1` [Example 17, 7-Cyclobutyl-3-(2-fluorophenyl)-6-(4-methyl-4H-1,2,4-triazol-3-ylmethoxy)-1,2,4-triazolo[4,3-b]pyridazine] returned a melting point of 228 °C.

The compound `Cn1ccc(COc2nn3c(-c4ccccc4F)nnc3cc2C2CCC2)n1` [Example 14, 7-Cyclobutyl-3-(2-fluorophenyl)-6-(1-methyl-1H-pyrazol-3-ylmethoxy)-1,2,4-triazolo[4,3-b]pyridazine] displayed a melting point of 184 to 186 °C.

(Values after patent US6828322B2, “Triazolo-pyridazine derivatives as ligands for GABA receptors” (Merck Sharp & Dohme Ltd., priority 1998, dated 2004).)
